Reference: US11000033B2, “Ketone or oxime compound, and herbicide” (NISSAN CHEMICAL CORPORATION, priority 2014, dated 2021)

Columns and labels:
Type in all cases: in vivo
[1] = test system: Stellaria media; experiment: Test Example 5: herbicidal effect by foliage application, plastic box (symbol P); settings: 320 g/ha, 3 weeks after application
Outline: (§1)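 Post-emergence spray; diluvial soil (sterilized), ~1.5 cm seed cover; greenhouse 25–30° C; 14-day-old plants; water-diluted emulsion at predetermined dose; visual score at 3 wk post-treatment.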

[2] = test system: soybean; experiment: Test Example 5: effect on crop by foliage application, plastic box (symbol d); settings: 320 g/ha, 3 weeks after application
Outline: (§2)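 Crop and weed seeds sown in spots in sterilized diluvial soil in plastic boxes and covered with about 1.5 cm soil. Plants raised in a greenhouse at 25° C. to 30° C. for foliar application.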

[3] = test system: beet; experiment: Test Example 5: effect on crop by foliage application, plastic box (symbol f); settings: 320 g/ha, 3 weeks after application
Outline: as §2

[4] = test system: Amaranthus retroflexus; experiment: Test Example 5: herbicidal effect by foliage application, plastic box (symbol N); settings: 320 g/ha, 3 weeks after application
Outline: as §1

[5] = test system: rapeseed; experiment: Test Example 5: effect on crop by foliage application, plastic box (symbol g); settings: 320 g/ha, 3 weeks after application
Outline: as §2

[6] = test system: Chenopodium album; experiment: Test Example 5: herbicidal effect by foliage application, plastic box (symbol O); settings: 320 g/ha, 3 weeks after application
Outline: as §1

[7] = test system: transplanted rice plant; experiment: Test Example 1: effect on crop, application before weed generation in submerged conditions (symbol a); settings: application herbicide amount 320 g/ha
Outline: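 Rice at 2.5 leaf stage transplanted into submerged soil (4 cm depth) sown with three weed species; herbicide applied before weed emergence.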

[8] = test system: directly sowed rice plant; experiment: Test Example 3: effect on crop by foliage application, Wagner pot (symbol b); settings: application herbicide amount 320 g/ha
Outline: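 Wagner pot (1/10000 are), alluvial soil, submerged 0.1–0.5 cm; sown E. crus-galli var. crus-galli, L. chinensis, C. difformis, rice; greenhouse 25–30 °C.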

[9] = test system: Veronica persica; experiment: Test Example 5: herbicidal effect by foliage application, plastic box (symbol R); settings: 320 g/ha, 3 weeks after application
Outline: as §1

[10] = test system: Abutilon theophrasti; experiment: Test Example 5: herbicidal effect by foliage application, plastic box (symbol M); settings: 320 g/ha, 3 weeks after application
Outline: as §1

[11] = test system: Scirpus juncoides; experiment: Test Example 1: herbicidal activity, application before weed generation in submerged conditions (symbol B); settings: application herbicide amount 320 g/ha
Outline: (§3)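 Mixed weed seeds sown in alluvial soil under 4 cm of water, with rice seedlings at the 2.5-leaf stage added. Same-day treatment: emulsion diluted to a set herbicide amount onto the water. Three weeks at 25–30 °C, then graded on a six-step scale.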

[12] = test system: Avena fatua; experiment: Test Example 5: herbicidal effect by foliage application, plastic box (symbol I); settings: 320 g/ha, 3 weeks after application
Outline: as §1

[13] = test system: Lolium multiflorum Lam.; experiment: Test Example 5: herbicidal effect by foliage application, plastic box (symbol K); settings: 320 g/ha, 3 weeks after application
Outline: as §1

[14] = test system: Scirpus juncoides; experiment: Test Example 2: herbicidal activity, application during weed generation in submerged conditions (symbol B); settings: Table 23; application herbicide amount 320 g/ha; grade 0-5 by criteria of Test Example 1
Outline: (§4)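 Seeds sown in flooded alluvial soil (4 cm water) were grown in a 25-30° C greenhouse. At the one- to two-leaf stage, diluted emulsion of compound was applied to the water surface at a predetermined rate. Effect was scored 3 weeks later.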

[15] = test system: corn; experiment: Test Example 5: effect on crop by foliage application, plastic box (symbol c); settings: 320 g/ha, 3 weeks after application
Outline: as §2

[16] = test system: Alopecurus myosuroides; experiment: Test Example 5: herbicidal effect by foliage application, plastic box (symbol J); settings: 320 g/ha, 3 weeks after application
Outline: as §1

[17] = test system: Monochoria vaginalis; experiment: Test Example 1: herbicidal activity, application before weed generation in submerged conditions (symbol C); settings: application herbicide amount 320 g/ha
Outline: as §3

[18] = test system: wheat; experiment: Test Example 5: effect on crop by foliage application, plastic box (symbol e); settings: 320 g/ha, 3 weeks after application
Outline: as §2

[19] = test system: Apera spica-venti; experiment: Test Example 5: herbicidal effect by foliage application, plastic box (symbol L); settings: 320 g/ha, 3 weeks after application
Outline: as §1

[20] = test system: Setaria viridis; experiment: Test Example 5: herbicidal effect by foliage application, plastic box (symbol G); settings: 320 g/ha, 3 weeks after application
Outline: as §1

[21] = test system: Echinochloa oryzacola Vasing.; experiment: Test Example 1: herbicidal activity, application before weed generation in submerged conditions (symbol A); settings: application herbicide amount 320 g/ha
Outline: as §3

[22] = test system: Echinochloa crus-galli var. crus-galli; experiment: Test Example 3: herbicidal effect by foliage application, Wagner pot (symbol H); settings: application herbicide amount 320 g/ha
Outline: (§5)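 Plants sown in submerged alluvial soil (water depth 0.1–0.5 cm) in a 25–30 °C greenhouse and grown 14 days. An emulsion of the compound diluted in water to a set herbicide amount was sprayed uniformly on foliage. Effect on each plant scored 3 weeks after application.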

[23] = test system: rice plant; experiment: Test Example 5: effect on crop by foliage application, plastic box (symbol b); settings: 320 g/ha, 3 weeks after application
Outline: as §2

[24] = test system: Digitaria ciliaris; experiment: Test Example 5: herbicidal effect by foliage application, plastic box (symbol F); settings: 320 g/ha, 3 weeks after application
Outline: as §1

[25] = test system: Cyperus difformis; experiment: Test Example 3: herbicidal effect by foliage application, Wagner pot (symbol E); settings: application herbicide amount 320 g/ha
Outline: as §5

[26] = test system: Monochoria vaginalis; experiment: Test Example 2: herbicidal activity, application during weed generation in submerged conditions (symbol C); settings: Table 23; application herbicide amount 320 g/ha; grade 0-5 by criteria of Test Example 1
Outline: as §4

[27] = test system: Echinochloa crus-galli var. crus-galli; experiment: Test Example 5: herbicidal effect by foliage application, plastic box (symbol H); settings: 320 g/ha, 3 weeks after application
Outline: as §1

[28] = test system: Echinochloa oryzacola Vasing.; experiment: Test Example 2: herbicidal activity, application during weed generation in submerged conditions (symbol A); settings: Table 23; application herbicide amount 320 g/ha; grade 0-5 by criteria of Test Example 1
Outline: as §4

[29] = test system: Galium spurium; experiment: Test Example 5: herbicidal effect by foliage application, plastic box (symbol Q); settings: 320 g/ha, 3 weeks after application
Outline: as §1

[30] = test system: Leptochloa chinensis; experiment: Test Example 3: herbicidal effect by foliage application, Wagner pot (symbol D); settings: application herbicide amount 320 g/ha
Outline: as §5

CCCC=Cc1cc(C)c(C2=C(O)CC(CC(C)=NOC)C2=O)c(C)c1 (stereo not drawn) [6-071]
P: Stellaria media, herbicidal effect (criteria of Test Example 1) [1]: 0 (Herbicidal ratio of 5% or lower (almost no effect)) | d: soybean, effect on crop (criteria of Test Example 1) [2]: 0 (Herbicidal ratio of 5% or lower (almost no effect)) | f: beet, effect on crop (criteria of Test Example 1) [3]: 0 (Herbicidal ratio of 5% or lower (almost no effect)) | N: Amaranthus retroflexus, herbicidal effect (criteria of Test Example 1) [4]: 0 (Herbicidal ratio of 5% or lower (almost no effect)) | g: rapeseed, effect on crop (criteria of Test Example 1) [5]: 0 (Herbicidal ratio of 5% or lower (almost no effect)) | O: Chenopodium album, herbicidal effect (criteria of Test Example 1) [6]: 0 (Herbicidal ratio of 5% or lower (almost no effect)) | Effect grade on crop, a: transplanted rice plant [7]: 0 (Herbicidal ratio of 5% or lower (almost no effect)) | effect on crop b (directly sowed rice plant), grade 0-5 [8]: 1 (Herbicidal ratio of 5% or higher and lower than 20%) | R: Veronica persica, herbicidal effect (criteria of Test Example 1) [9]: 0 (Herbicidal ratio of 5% or lower (almost no effect)) | M: Abutilon theophrasti, herbicidal effect (criteria of Test Example 1) [10]: 0 (Herbicidal ratio of 5% or lower (almost no effect)) | Herbicidal effect grade, B: Scirpus juncoides [11]: 0 (Herbicidal ratio of 5% or lower (almost no effect)) | I: Avena fatua, herbicidal effect (criteria of Test Example 1) [12]: 0 (Herbicidal ratio of 5% or lower (almost no effect)) | K: Lolium multiflorum Lam., herbicidal effect (criteria of Test Example 1) [13]: 4 (Herbicidal ratio of 70% or higher and lower than 90%) | Herbicidal effect grade, B: Scirpus juncoides [14]: 0 (Herbicidal ratio of 5% or lower (almost no effect)) | c: corn, effect on crop (criteria of Test Example 1) [15]: 0 (Herbicidal ratio of 5% or lower (almost no effect)) | J: Alopecurus myosuroides, herbicidal effect (criteria of Test Example 1) [16]: 3 (Herbicidal ratio of 40% or higher and lower than 70%) | Herbicidal effect grade, C: Monochoria vaginalis [17]: 0 (Herbicidal ratio of 5% or lower (almost no effect)) | e: wheat, effect on crop (criteria of Test Example 1) [18]: 2 (Herbicidal ratio of 20% or higher and lower than 40%) | L: Apera spica-venti, herbicidal effect (criteria of Test Example 1) [19]: 2 (Herbicidal ratio of 20% or higher and lower than 40%) | G: Setaria viridis, herbicidal effect (criteria of Test Example 1) [20]: 0 (Herbicidal ratio of 5% or lower (almost no effect)) | Herbicidal effect grade, A: Echinochloa oryzacola Vasing. [21]: 4 (Herbicidal ratio of 70% or higher and lower than 90%) | herbicidal effect on H (Echinochloa crus-galli var. crus-galli), grade 0-5 [22]: 4 (Herbicidal ratio of 70% or higher and lower than 90%) | b: directly sowed rice plant, effect on crop (criteria of Test Example 1) [23]: 1 (Herbicidal ratio of 5% or higher and lower than 20%) | F: Digitaria ciliaris, herbicidal effect (criteria of Test Example 1) [24]: 0 (Herbicidal ratio of 5% or lower (almost no effect)) | herbicidal effect on E, grade 0-5 [25]: 0 (Herbicidal ratio of 5% or lower (almost no effect)) | Herbicidal effect grade, C: Monochoria vaginalis [26]: 0 (Herbicidal ratio of 5% or lower (almost no effect)) | H: Echinochloa crus-galli var. crus-galli, herbicidal effect (criteria of Test Example 1) [27]: 0 (Herbicidal ratio of 5% or lower (almost no effect)) | Herbicidal effect grade, A: Echinochloa oryzacola Vasing. [28]: 2 (Herbicidal ratio of 20% or higher and lower than 40%) | Q: Galium spurium, herbicidal effect (criteria of Test Example 1) [29]: 0 (Herbicidal ratio of 5% or lower (almost no effect)) | herbicidal effect on D (Leptochloa chinensis), grade 0-5 [30]: 5 (Herbicidal ratio of 90% or more (almost completely withered))
